Measurements reported in publication PMC12647759 (Scientific Reports, 2025).

Tests used:
human PLCε = biological target: T1, human PLCε (Homo sapiens, UniProt Q9P212); experiment: In vitro PLC assay using fluorogenic substrate Compound 1 (HTS), PLCε; type: biochemical; settings: Compound 1 as substrate, varying concentrations
T1 construct: expressing the full-length polypeptides of human PLCε, PLCβ4, PLCδ1 and PLCγ1 as FLAG fusions; made in house; host or cells: Expi293F cells
Description: For measuring inhibition by compounds for HTS, the reactions were conducted at RIKEN Center for Sustainable Resource Science (CSRS) as described above except that 5 µl of compound solution and 5 µl of purified PLCe (120 ng) were added to each well. […] For determination of the IC50 values for ZPT and Zn^2+, the EDTA concentration was reduced to one-tenth to avoid its zinc-chelating effect. For assay of the other PLC classes, the reactions were performed similarly except that PLCβ4 (5 ng), PLCδ1 (0.1 ng) or PLCγ1 (0.3 ng) was used instead of PLCε.

Caco2 cells [1] = experiment: Determination of intracellular zinc concentration with Zinquin ethyl ester; type: cell-based, human; settings: 5 µM sodium pyrithione added to 5 µM ZnSO4, 30 min
Description: Confluent Caco2 cells in a Φ10-cm culture dish were subjected to serum starvation overnight and incubated with 10 µM MG132 for 30 min. […] The cells were harvested by trypsinization, washed with PBS and suspended at the density of 5 × 10^6 cells/ml in Hanks’ balanced salt solution (HBSS). After the addition of 1 mg/ml Zinquin ethyl ester (Dojindo Laboratories, Kumamoto, Japan)[27] dissolved in DMSO at the final concentration of 25 µM, the cell suspension was incubated at 37 °C for 30 min. Subsequently, the cells were washed three times with HBSS, suspended in HBSS at the density of 5 × 10^6 cells/ml and subjected to measurement of the fluorescence emission at 490 nm with the excitation at 370 nm by POLARstar Omega-25.

[2] = tested on: DSS-induced inflammatory colitis; experiment: DSS-induced inflammatory colitis; type: in vivo, mice; settings: 2.5% DSS 7 days; i.p. once a day, ZPT 2.5, 5 or 10 mg/kg, dipyrithione 10 mg/kg
Description: To induce inflammatory colitis, 10 weeks-old C57BL/6JJc1 mice were allowed to take drinking water containing 2.5% (w/v) DSS (molecular weight 36,000 ~ 50,000; Wako Pure Chemical, Osaka, Japan) ad libitum for 7 days[9],[30]. During this period, they were administered intraperitoneally with ZPT, dipyrithione or a vehicle (0.5% carboxymethyl cellulose and 0.9% NaCl) once a day. Thereafter, their colons were excised, washed with PBS, dissected longitudinally, fixed in 4% paraformaldehyde (PFA), embedded in paraffin and serially sectioned as described. The Sect. (10-µm thick) were subjected to H&E staining. Images were taken with an Olympus FSX100 microscope and Olympus FSX100-BSW software. The severity of inflammatory colitis was also assessed by measuring the body weight loss and the colon length shortening.

[3] = tested on: intestinal tumours of Apc^Min/+ mice; experiment: Intestinal tumourigenesis of Apc^Min/+ mice; type: in vivo; settings: i.p. 3 days per week for 11 weeks, ZPT 2.5 or 5 mg/kg, dipyrithione 5 mg/kg
Description: Five weeks-old Apc^Min/+ mice were administered intraperitoneally with ZPT, dipyrithione or the vehicle 3 days per week for 11 weeks. Thereafter, the mice were sacrificed and the whole small intestines were excised, rolled up in a ‘Swiss roll’ configuration, embedded in OCT compound and longitudinally sectioned at the 10-µm thickness. One section in the middle position of each intestine was subjected to H&E staining after fixation with 4% PFA, and tumours in the whole section were classified under microscope into hyperplasias, low-grade adenomas, high-grade adenomas and adenocarcinomas according to the histopathological criteria recommended for the study of mouse models of intestinal cancer. The classification was conducted by a pathologist at Pathology Analysis Center (Kanagawa, Japan) under the blind condition regarding the compound administration.

SW480 cells = experiment: Tumour xenograft of SW480 cells in nude mice; type: in vivo; settings: i.p. 3 days per week for 3 weeks, ZPT 2.5, 5 or 10 mg/kg, dipyrithione 5 mg/kg
Description: (§1) Tumour xenograft experiments were performed as previously described. Briefly, SW480 or Caco2 cells (5 × 10^6 cells each) were implanted subcutaneously into the right flanks of female athymic nude (nu/nu) mice (6–8 weeks old, CLEA Japan). One week later, the mice were administered intraperitoneally with ZPT, dipyrithione or the vehicle 3 days per week for 3 or 8 weeks, respectively, during which the volumes (V) of the tumours, calculated by the following formula: V = A × B^2/2 (A: the largest diameter, B: the perpendicular diameter), and the body weight were monitored every 7 days. Thereafter, tumours of the SW480-grafted mice were dissected, weighed, fixed in 4% paraformaldehyde, embedded in paraffin and serially sectioned. The Sect. (10-µm thick) were subjected to immunohistochemical detection of phosphorylated PKD by using anti-phospho-PKD antibody and HISTMOUSE-PLUS Kit (ZYMED Lab., Carlsbad, CA) according to the manufacturer’s protocol.

Caco2 cells [4] = experiment: Tumour xenograft of Caco2 cells in nude mice; type: in vivo; settings: i.p. 3 days per week for 8 weeks, ZPT 2.5, 5 or 10 mg/kg, dipyrithione 5 mg/kg
Description: as §1

SW620 cells = experiment: Experimental lung metastasis of SW620 cells in nude mice; type: in vivo; settings: i.p. twice, one week before and after cell injection, ZPT 2.5 or 5 mg/kg, dipyrithione 5 mg/kg
Description: Female nude mice (6–8 weeks old) were injected with SW620 cells (1 × 10^7 cells) suspended in 200 µl L-15 medium via tail vein and maintained for further 8 weeks. ZPT, dipyrithione or the vehicle was administered intraperitoneally to the mice twice, 1 week before and after the cell injection. Thereafter, the mice were sacrificed, and their lungs were excised, fixed in 4% PFA, embedded in paraffin and serially sectioned. The Sect. (10-µm thick) were subjected to H&E staining. For histologic evaluation of lung micro-metastasis, the number of micro-metastatic nodules in 3 non-contiguous lung sections from each mouse was counted under a light microscope as described previously.

PLC = settings: cited from earlier work

T1 sequence (Q9P212 whole entry, the tested form may be a part): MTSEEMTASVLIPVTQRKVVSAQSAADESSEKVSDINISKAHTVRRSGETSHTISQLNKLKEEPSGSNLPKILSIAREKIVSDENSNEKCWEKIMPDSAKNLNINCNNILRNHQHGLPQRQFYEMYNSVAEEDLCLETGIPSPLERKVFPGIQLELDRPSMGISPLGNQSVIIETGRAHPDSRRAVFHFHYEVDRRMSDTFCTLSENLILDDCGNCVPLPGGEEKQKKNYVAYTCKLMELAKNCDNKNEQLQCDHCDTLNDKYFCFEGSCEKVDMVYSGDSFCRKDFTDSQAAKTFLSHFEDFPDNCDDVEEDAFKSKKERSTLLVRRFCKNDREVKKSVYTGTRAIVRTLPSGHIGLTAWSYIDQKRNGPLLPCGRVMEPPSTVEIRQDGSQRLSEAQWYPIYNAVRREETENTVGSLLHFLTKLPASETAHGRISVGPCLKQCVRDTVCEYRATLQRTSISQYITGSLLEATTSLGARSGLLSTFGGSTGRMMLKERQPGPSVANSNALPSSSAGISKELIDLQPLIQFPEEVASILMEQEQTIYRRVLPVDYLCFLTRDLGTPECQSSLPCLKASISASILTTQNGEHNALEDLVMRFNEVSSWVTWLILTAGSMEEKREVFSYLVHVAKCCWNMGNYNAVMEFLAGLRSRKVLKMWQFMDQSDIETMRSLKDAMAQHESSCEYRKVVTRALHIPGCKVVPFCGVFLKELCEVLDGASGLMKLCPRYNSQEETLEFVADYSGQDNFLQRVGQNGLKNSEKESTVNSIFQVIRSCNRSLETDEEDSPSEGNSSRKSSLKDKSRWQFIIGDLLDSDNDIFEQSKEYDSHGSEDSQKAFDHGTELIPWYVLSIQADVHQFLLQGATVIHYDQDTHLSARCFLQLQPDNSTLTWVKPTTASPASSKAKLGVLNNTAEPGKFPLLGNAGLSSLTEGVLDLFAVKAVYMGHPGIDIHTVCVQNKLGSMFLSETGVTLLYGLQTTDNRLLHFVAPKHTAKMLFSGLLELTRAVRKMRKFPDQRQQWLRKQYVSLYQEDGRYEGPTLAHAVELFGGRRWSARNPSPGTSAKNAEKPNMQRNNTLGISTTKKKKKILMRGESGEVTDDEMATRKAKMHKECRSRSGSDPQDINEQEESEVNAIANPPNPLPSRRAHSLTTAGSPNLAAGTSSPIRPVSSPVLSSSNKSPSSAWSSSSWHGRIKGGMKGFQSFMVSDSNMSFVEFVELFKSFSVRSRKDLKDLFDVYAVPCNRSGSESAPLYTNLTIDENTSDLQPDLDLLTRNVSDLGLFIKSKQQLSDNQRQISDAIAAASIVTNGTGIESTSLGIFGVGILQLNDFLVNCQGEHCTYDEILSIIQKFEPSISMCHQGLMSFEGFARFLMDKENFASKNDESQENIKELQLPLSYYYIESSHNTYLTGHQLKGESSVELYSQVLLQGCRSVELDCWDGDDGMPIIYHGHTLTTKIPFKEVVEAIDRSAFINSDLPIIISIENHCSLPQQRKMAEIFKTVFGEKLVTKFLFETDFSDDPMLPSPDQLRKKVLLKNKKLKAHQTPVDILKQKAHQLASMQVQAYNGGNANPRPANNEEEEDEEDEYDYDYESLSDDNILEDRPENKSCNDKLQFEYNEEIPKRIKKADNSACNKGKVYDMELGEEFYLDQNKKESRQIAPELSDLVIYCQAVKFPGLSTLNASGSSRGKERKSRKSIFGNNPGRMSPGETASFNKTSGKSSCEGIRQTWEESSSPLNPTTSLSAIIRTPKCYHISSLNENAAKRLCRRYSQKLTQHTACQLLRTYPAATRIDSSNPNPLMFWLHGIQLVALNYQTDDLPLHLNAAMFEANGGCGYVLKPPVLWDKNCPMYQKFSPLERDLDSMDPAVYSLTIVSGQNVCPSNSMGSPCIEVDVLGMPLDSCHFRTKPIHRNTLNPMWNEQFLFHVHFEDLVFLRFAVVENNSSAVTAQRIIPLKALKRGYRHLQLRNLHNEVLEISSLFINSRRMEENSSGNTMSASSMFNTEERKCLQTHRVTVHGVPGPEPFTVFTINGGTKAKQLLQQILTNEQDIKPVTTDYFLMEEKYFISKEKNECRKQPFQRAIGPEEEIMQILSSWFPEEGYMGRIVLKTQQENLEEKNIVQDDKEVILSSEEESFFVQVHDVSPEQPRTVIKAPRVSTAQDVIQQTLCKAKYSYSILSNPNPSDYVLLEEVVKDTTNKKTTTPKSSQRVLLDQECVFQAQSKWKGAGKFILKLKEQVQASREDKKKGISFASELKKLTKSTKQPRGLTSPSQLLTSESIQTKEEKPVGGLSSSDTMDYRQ

On1ccccc1=S [sodium pyrithione]
inhibition of PLCε (human PLCε): failed to inhibit PLCε
increase in intracellular Zn^2+ concentration (Caco2 cells [1]): 8.78 fold

[O-][n+]1ccccc1SSc1cccc[n+]1[O-] [dipyrithione]
inhibition of PLCε (human PLCε): failed to inhibit PLCε
body weight loss [2]: failed to alleviate
colon length shortening [2]: failed to alleviate
histology: erosion of the mucosa, swelling of the submucosa and leukocyte infiltration [2]: failed to alleviate
ratio of high-grade adenomas / progression of low-grade to high-grade adenomas [3]: appeared to accelerate the progression of low-grade adenomas to high-grade adenomas
growth of grafted cells (tumour volume) (SW480 cells): not
growth of grafted cells (tumour volume) (Caco2 cells [4]): not
numbers of micro-metastatic nodules in lung sections (SW620 cells): exhibited no effect

COc1ccc2c(c1)CC[C@@H]1[C@@H]2CC[C@]2(C)[C@@H](NCCCCCCN3C(=O)C=CC3=O)CC[C@@H]12 [U73122]
inhibition of PLC catalytic activity in vitro (PLC): failed to inhibit PLC catalytic activity in vitro
